Test results: ChEMBL document CHEMBL1201862, “PubChem BioAssay data set” (2004)
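Dose response: 5 concentrations. Exposure: 48 h. Format: 96-well plates. Endpoint: linear interpolation; highest concentration if not reached. At the GI50, growth is halved.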 Active and inactive are the calls of the source. Rule as the data show it: active = GI50 up to about 1.1 µM and inactive = higher.

Legend:
Assay in all cases: NCI tumour cell line growth inhibition, 48 h
A498 = system: A498
786-0 = system: 786-0
OVCAR-3 = system: OVCAR-3
RPMI-8226 = system: RPMI-8226
PC-3 = system: PC-3
SN12C = system: SN12C
K562 = system: K562
MDA-MB-435 = system: MDA-MB-435
KM12 = system: KM12
SF-268 = system: SF-268
T47D = system: T47D
EKVX = system: EKVX
OVCAR-5 = system: OVCAR-5
NCI-H522 = system: NCI-H522
MDA-MB-231 = system: MDA-MB-231
IGROV-1 = system: IGROV-1
NCI-H460 = system: NCI-H460
NCI-H226 = system: NCI-H226
CCRF-CEM = system: CCRF-CEM

Measured: GI50

CC(C)(CC1(C)NC(=O)NC1=O)OCc1ccccc1 (stereo not drawn)
inactive: A498 > 100 µM | 786-0 > 100 µM | OVCAR-3 > 100 µM | RPMI-8226 > 100 µM | PC-3 > 100 µM | SN12C > 100 µM | K562 > 100 µM | MDA-MB-435 > 100 µM | KM12 > 100 µM | SF-268 > 100 µM | T47D > 100 µM | EKVX > 100 µM | OVCAR-5 > 100 µM | NCI-H522 > 100 µM | MDA-MB-231 > 100 µM | IGROV-1 > 100 µM | NCI-H460 > 100 µM

CN1CN(c2ccccc2)C2(CCN(CCCCCCF)CC2)C1=O
inactive: 786-0 > 100 µM | OVCAR-3 > 100 µM | RPMI-8226 > 100 µM | PC-3 > 100 µM | NCI-H226 > 100 µM | SN12C 68.9 µM | K562 > 100 µM | MDA-MB-435 > 100 µM | KM12 > 100 µM | SF-268 94.8 µM | T47D 29.9 µM | EKVX 48.6 µM | OVCAR-5 35 µM | NCI-H522 > 100 µM | MDA-MB-231 81.1 µM | IGROV-1 40.3 µM | CCRF-CEM 37.9 µM

CN(C)CCN1C(=O)c2ccccc2C1(O)c1ccc(Cl)cc1 (stereo not drawn)
inactive: 786-0 > 100 µM | OVCAR-3 > 100 µM | RPMI-8226 > 100 µM | PC-3 50.1 µM | NCI-H226 66.7 µM | SN12C > 100 µM | K562 > 100 µM | MDA-MB-435 > 100 µM | KM12 69.5 µM | SF-268 > 100 µM | T47D 94.8 µM | EKVX > 100 µM | OVCAR-5 > 100 µM | MDA-MB-231 44.6 µM | IGROV-1 39.3 µM | CCRF-CEM 32.4 µM | NCI-H460 93.1 µM

CCOC(=O)NNC(=O)NCCCCNC(=O)NNC(=O)OCC
inactive: A498 > 100 µM | 786-0 > 100 µM | OVCAR-3 > 100 µM | RPMI-8226 > 100 µM | PC-3 > 100 µM | NCI-H226 > 100 µM | SN12C > 100 µM | K562 > 100 µM | MDA-MB-435 > 100 µM | KM12 98.2 µM | T47D > 100 µM | EKVX > 100 µM | OVCAR-5 > 100 µM | NCI-H522 > 100 µM | MDA-MB-231 > 100 µM | IGROV-1 > 100 µM | CCRF-CEM > 100 µM | NCI-H460 > 100 µM

NC(Cc1cccnn1)C(=O)O (stereo not drawn)
inactive: A498 > 100 µM | 786-0 > 100 µM | OVCAR-3 > 100 µM | RPMI-8226 > 100 µM | PC-3 > 100 µM | NCI-H226 > 100 µM | SN12C > 100 µM | K562 > 100 µM | MDA-MB-435 > 100 µM | KM12 > 100 µM | SF-268 > 100 µM | T47D > 100 µM | EKVX > 100 µM | OVCAR-5 > 100 µM | NCI-H522 > 100 µM | MDA-MB-231 > 100 µM | IGROV-1 > 100 µM | CCRF-CEM > 100 µM | NCI-H460 > 100 µM

CCCCCCCCCCCCCCCCCCNc1ccn(C2OC(COP(=O)(O)OCC3OC(n4cc(C)c(=O)[nH]c4=O)CC3O)C(O)C2O)c(=O)n1 (stereo not drawn)
inactive: A498 24.8 µM | 786-0 18 µM | OVCAR-3 19 µM | RPMI-8226 16.1 µM | PC-3 3.1 µM | NCI-H226 23.7 µM | SN12C 17.7 µM | K562 19.8 µM | MDA-MB-435 16.9 µM | KM12 18.3 µM | SF-268 17.4 µM | T47D 17.3 µM | EKVX 19.4 µM | OVCAR-5 14.8 µM | NCI-H522 15.8 µM | MDA-MB-231 14.6 µM | CCRF-CEM 10.4 µM | NCI-H460 17.9 µM

O=c1n(-c2ccccc2)c(=O)n2n1C1C=CC2CCCCCC1
inactive: 786-0 > 100 µM | OVCAR-3 4.99 µM | RPMI-8226 60 µM | PC-3 > 100 µM | NCI-H226 > 100 µM | SN12C > 100 µM | MDA-MB-435 > 100 µM | KM12 > 100 µM | SF-268 > 100 µM | T47D > 100 µM | EKVX > 100 µM | OVCAR-5 > 100 µM | NCI-H522 22.8 µM | MDA-MB-231 > 100 µM | IGROV-1 > 100 µM | CCRF-CEM > 100 µM | NCI-H460 > 100 µM

CCOC(=O)c1c(SCc2ccccc2)nc2c3ccccc3ccn12
inactive: A498 54.5 µM | 786-0 > 100 µM | RPMI-8226 > 100 µM | PC-3 > 100 µM | NCI-H226 33.7 µM | SN12C > 100 µM | K562 > 100 µM | MDA-MB-435 > 100 µM | KM12 > 100 µM | SF-268 94 µM | T47D > 100 µM | EKVX > 100 µM | OVCAR-5 > 100 µM | NCI-H522 37.2 µM | MDA-MB-231 > 100 µM | IGROV-1 38.9 µM | CCRF-CEM > 100 µM | NCI-H460 55.6 µM

CC1(C)CC(C2=NCCO2)CC(C)(C)N1
inactive: A498 > 100 µM | 786-0 > 100 µM | OVCAR-3 > 100 µM | RPMI-8226 > 100 µM | PC-3 > 100 µM | NCI-H226 > 100 µM | SN12C > 100 µM | K562 > 100 µM | MDA-MB-435 > 100 µM | SF-268 > 100 µM | T47D > 100 µM | EKVX > 100 µM | OVCAR-5 > 100 µM | MDA-MB-231 > 100 µM | IGROV-1 > 100 µM | CCRF-CEM > 100 µM

Cc1cccc(NC(=O)/C=C/c2ccccc2)c1C
inactive: A498 > 100 µM | 786-0 > 100 µM | OVCAR-3 > 100 µM | RPMI-8226 > 100 µM | PC-3 > 100 µM | NCI-H226 > 100 µM | SN12C > 100 µM | K562 > 100 µM | MDA-MB-435 > 100 µM | KM12 > 100 µM | SF-268 > 100 µM | T47D > 100 µM | EKVX > 100 µM | OVCAR-5 > 100 µM | NCI-H522 > 100 µM | MDA-MB-231 > 100 µM | CCRF-CEM > 100 µM | NCI-H460 > 100 µM

COc1ccc(/C=N/NC(=O)c2ccc(O)c(CN(C)C)c2)cc1
inactive: A498 18.2 µM | 786-0 > 100 µM | OVCAR-3 > 100 µM | PC-3 > 100 µM | NCI-H226 > 100 µM | SN12C > 100 µM | K562 > 100 µM | MDA-MB-435 47.3 µM | KM12 > 100 µM | SF-268 > 100 µM | T47D > 100 µM | EKVX > 100 µM | OVCAR-5 > 100 µM | NCI-H522 10.5 µM | MDA-MB-231 > 100 µM | IGROV-1 > 100 µM | CCRF-CEM > 100 µM | NCI-H460 > 100 µM

COc1ccc(/N=C2/SC(=N/N=c3\sc4ccccc4n3C)S/C2=N/c2ccc(OC)cc2)cc1
inactive: 786-0 47.3 µM | OVCAR-3 > 100 µM | RPMI-8226 > 100 µM | PC-3 > 100 µM | NCI-H226 49 µM | SN12C > 100 µM | K562 2.92 µM | MDA-MB-435 > 100 µM | KM12 > 100 µM | SF-268 > 100 µM | T47D 23.3 µM | EKVX > 100 µM | OVCAR-5 > 100 µM | NCI-H522 70.8 µM | MDA-MB-231 2.97 µM | IGROV-1 > 100 µM | NCI-H460 > 100 µM

CC(=O)OCCCC(NC(=O)OC(C)(C)C)C(=O)NC(CCCOC(C)=O)C(=O)NC(Cc1ccc([N+](=O)[O-])cc1)C(=O)NCC(=O)OCc1ccccc1 (stereo not drawn)
inactive: 786-0 18 µM | OVCAR-3 16.5 µM | RPMI-8226 19.9 µM | PC-3 17.2 µM | NCI-H226 16.1 µM | SN12C 17.7 µM | K562 23.7 µM | MDA-MB-435 17.3 µM | KM12 15.6 µM | SF-268 20.2 µM | T47D 18 µM | EKVX 18.3 µM | OVCAR-5 15.8 µM | NCI-H522 18.1 µM | MDA-MB-231 13 µM | IGROV-1 17.9 µM | CCRF-CEM 29.7 µM | NCI-H460 15.6 µM

Cc1cc(C)c2c(n1)S(=O)(=O)N(CCCN1CCN(c3cccc(C(F)(F)F)c3)CC1)C(C(=O)c1ccc(Cl)cc1)=C2O
inactive: A498 4.52 µM | 786-0 2.47 µM | OVCAR-3 3.57 µM | PC-3 2.88 µM | NCI-H226 2.45 µM | SN12C 2.02 µM | K562 2.2 µM | MDA-MB-435 3.18 µM | KM12 3.58 µM | SF-268 3.69 µM | T47D 3.98 µM | EKVX 3.03 µM | OVCAR-5 4.71 µM | NCI-H522 2.7 µM | MDA-MB-231 4.4 µM | IGROV-1 3.26 µM | CCRF-CEM 8.15 µM | NCI-H460 1.79 µM

Cc1ccc(S(=O)(=O)n2cc(-c3cc(C(F)(F)F)ccn3)c3cc(Br)ccc32)cc1
inactive: A498 18.2 µM | 786-0 13.9 µM | OVCAR-3 12.2 µM | RPMI-8226 69.2 µM | PC-3 18.2 µM | NCI-H226 19 µM | SN12C 28.3 µM | K562 > 100 µM | MDA-MB-435 46.2 µM | KM12 38.9 µM | SF-268 27.4 µM | T47D 1.55 µM | EKVX 29.6 µM | OVCAR-5 50 µM | MDA-MB-231 17.3 µM | CCRF-CEM > 100 µM | NCI-H460 36.5 µM
